Data published in US9650339B2, “Inhibitors of histone demethylases” (Gilead Sciences, Inc., priority 2013, dated 2017).

Key:
[1] = target: T1, KDM4C (JMJD2C) (Homo sapiens, UniProt Q9H3R0); test: Histone lysine demethylase AlphaLISA assay, KDM4C; type: biochemical; conditions: read-out: KDM4C HDME Inhibition IC50
T1 sequence (Q9H3R0 1-349): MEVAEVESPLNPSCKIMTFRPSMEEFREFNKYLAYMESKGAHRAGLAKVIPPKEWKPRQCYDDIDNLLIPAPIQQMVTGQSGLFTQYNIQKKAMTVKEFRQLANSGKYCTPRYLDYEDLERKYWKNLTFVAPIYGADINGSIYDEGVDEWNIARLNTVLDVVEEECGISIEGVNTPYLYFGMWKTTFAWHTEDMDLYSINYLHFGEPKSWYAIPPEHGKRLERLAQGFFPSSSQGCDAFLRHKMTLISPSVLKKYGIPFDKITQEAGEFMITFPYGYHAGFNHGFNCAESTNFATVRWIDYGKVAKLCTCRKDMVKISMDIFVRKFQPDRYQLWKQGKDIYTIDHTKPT
Procedure, shortened: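 Biotinylated methylated H3 peptides (K9, K4, K27 or K36 marks) served as substrate, with 25 μM L-Asc and 10 μM α-KG. Enzymes were preincubated 10 min, then exposed to compounds (3% DMSO solutions) 10 min; product detected by AlphaLISA acceptor and streptavidin donor beads at room temperature in dark.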

[2] = target: T2, KDM5B (Homo sapiens, UniProt Q9UGL1); test: Histone lysine demethylase immunofluorescence assay, U2OS cells transfected with KDM5B; type: cell-based; conditions: U2OS cells transfected with pCMVHA KDM5B; mark detected H3K4me2; 20 hours
T2 construct: (a.a. 1-752); host or cells: U2OS
T2 sequence (Q9UGL1 1-752): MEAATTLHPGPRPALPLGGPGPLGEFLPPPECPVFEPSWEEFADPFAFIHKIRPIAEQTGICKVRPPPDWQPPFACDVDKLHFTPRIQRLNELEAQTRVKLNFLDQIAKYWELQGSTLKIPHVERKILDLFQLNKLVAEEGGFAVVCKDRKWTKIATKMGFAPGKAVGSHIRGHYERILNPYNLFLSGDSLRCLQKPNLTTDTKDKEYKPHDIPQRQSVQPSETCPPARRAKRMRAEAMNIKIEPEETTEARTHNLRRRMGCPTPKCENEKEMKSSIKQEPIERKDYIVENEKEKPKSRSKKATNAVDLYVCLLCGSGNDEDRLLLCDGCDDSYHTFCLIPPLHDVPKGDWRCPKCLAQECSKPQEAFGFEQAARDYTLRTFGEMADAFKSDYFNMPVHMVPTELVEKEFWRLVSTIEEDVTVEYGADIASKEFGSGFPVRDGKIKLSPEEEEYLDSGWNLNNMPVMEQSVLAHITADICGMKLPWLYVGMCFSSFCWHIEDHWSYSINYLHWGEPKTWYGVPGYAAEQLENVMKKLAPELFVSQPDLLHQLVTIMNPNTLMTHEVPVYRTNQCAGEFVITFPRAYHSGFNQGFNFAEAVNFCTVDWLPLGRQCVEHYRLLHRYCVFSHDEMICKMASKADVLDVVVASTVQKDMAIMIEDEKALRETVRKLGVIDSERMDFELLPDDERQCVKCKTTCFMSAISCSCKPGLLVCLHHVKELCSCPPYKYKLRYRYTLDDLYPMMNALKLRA
Procedure, shortened: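 U2OS cells were transiently transfected with HA-tagged demethylase and reseeded after 6 h into compound-containing DMEM/10% FBS for 20 h. Cells were fixed in formaldehyde and immunostained for HA and the relevant histone methyl mark, then imaged. IC50 is based on mean mark staining in HA+ transfected cells.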

## CN(C)CCCCNCc1cc(CN)ccn1 [Compound 2, [2-({[4-(dimethylamino)butyl]-amino}methyl)pyridin-4-yl]methanamine]
[1]
  IC50: > 2.5 µM
[2]
  IC50: < 0.25 µM

## CN(C)CCNCc1ccnc(CNCCCN(C)Cc2ccccc2)c1 [Compound 18, benzyl[3-({[4-({[2-(dimethylamino)ethyl]-amino}methyl)pyridin-2-yl]methyl}-amino)propyl]-methylamine]
[1]
  IC50: > 2.5 µM

## COCCNCc1ccnc(CNCCCN(C)Cc2ccccc2)c1 [Compound 19, benzyl(3-{[(4-{[(2-methoxyethyl)amino]-methyl}pyridin-2-yl)methyl]amino}-propyl)methylamine]
[1]
  IC50: > 2.5 µM
[2]
  IC50: > 2.5 µM

## COc1ccccc1CN1CCC(NC(=O)CNCc2cc(CNC3CC3)ccn2)CC1 [Compound 20, 2-[({4-[(cyclopropylamino)-methyl]pyridin-2-yl}methyl)amino]-N-{1-[(2-methoxyphenyl)methyl]-piperidin-4-yl}acetamide]
[1]
  IC50: 0.25 to 2.5 µM
[2]
  IC50: 0.25 to 2.5 µM

## CCN(CCN(C)C)C(=O)CN(Cc1cc(CNC(=O)C(F)(F)F)ccn1)C(=O)C(F)(F)F [Compound 26, N-[(2-{[N-({[2-(dimethylamino)ethyl]-(ethyl)carbamoyl}-methyl)-2,2,2-trifluoroacetamido]-methyl}pyridin-4-yl)methyl]-2,2,2-trifIuoroacetamide]
[1]
  IC50: > 2.5 µM
[2]
  IC50: < 0.25 µM

## COC(=O)CNCc1cc(/C=N/C2CC2)ccn1 [Compound 59, methyl 2-[({4-[N-cyclopropyl-carboximidoyl]pyridin-2-yl}methyl)amino]-acetate]
[1]
  IC50: 0.25 to 2.5 µM
[2]
  IC50: > 2.5 µM

## CCN(CC)CCCCNCc1cc(C2NCCCN2C)ccn1 (centres unmarked) [Compound 68, [4-(diethylamino)butyl]({[4-(1-methyl-1,3-diazinan-2-yl)pyridin-2-yl]methyl})amine]
[1]
  IC50: 0.25 to 2.5 µM
[2]
  IC50: < 0.25 µM

## O=Cc1ccnc(CNCCCCN(Cc2ccccc2)C2CC2)c1 [Compound 109, 2-[({4-[benzyl-(cyclopropyl)amino]-butyl}amino)methyl]-pyridine-4-carbaldehyde]
[1]
  IC50: 0.25 to 2.5 µM
[2]
  IC50: 0.25 to 2.5 µM

## O=Cc1ccnc(CNCC(=O)NC2CCN(Cc3ccccc3)C2)c1 (centres unmarked) [Compound 113, N-(1-benzylpyrrolidin-3-yl)-2-{[(4-formylpyridin-2-yl)methyl]amino}-acetamide]
[1]
  IC50: 0.25 to 2.5 µM
[2]
  IC50: > 2.5 µM
